pIC50: −log10 of the molar value. “And” between values parts separate entries of the source, which are not always exact repeats. Identical values can stand only once. Like-named read-outs stand apart in the source and are kept apart here.
Legend:
[1] = biological target: C. elegans (N2) complex I (NADH:ubiquinone oxidoreductase) (Caenorhabditis elegans, UniProt P24887+Q93873+Q94360); test: biochemical; type: biochemical; details: for percent (%) in vitro complex I activity relative to solvent control: mitochondria
Description: Mitochondria were isolated from the following free-living nematode strains: C. elegans—N2, CB3474, ECA882, ECA917, ECA1075, ECA1080; C. briggsae—AF16; P. pacificus—PS312; and P. hermaphrodita—B178. With the exception of the P. hermaphrodita strain B178, adult worms of each strain were grown in bulk through liquid culture to obtain mitochondria in sufficient quantities. Due to poor growth in liquid media, mixed stage populations of P. hermaphrodita were washed off and collected from NGM plates seeded with OP50. The isolation of mitochondria from all free-living nematode strains followed the protocol previously outlined in Burns et al.[24]. In brief, a 1 L saturated culture of E. coli HB101 was concentrated 20-fold in 50 mL complete S-medium. ~500,000 L1 worms synchronized from an embryo preparation performed the day prior were added to the S-media/HB101 suspension and grown to adulthood over the course of 3.5 days at 20 °C with shaking at 165 rpm. Following growth, worms were collected in 10 ×15 mL conical tubes and washed 7 times in M9 buffer. Worm suspensions were then combined into a single 15 mL conical tube and diluted to a final volume of 15 mL with M9 buffer. 1 mL aliquots of worm suspension were then distributed to 15 × 1.5 mL screw-cap microcentrifuge tubes and were pelleted at 500 g for 1 min. Excess M9 was aspirated without disturbing the worm pellet. 600 μL ice-cold isolate buffer A (250 mM sucrose, 10 mM Tris (pH 7.5), 1 mM EDTA, 1 mM PMSF (freshly prepared)) and 300 μL cold glass beads were then added to each tube. Tubes were incubated on ice for 10 min, and the worms were then lysed by bead beating (6 x 30 s, with 1 min cooling intervals). Tubes containing worm lysate were centrifuged at 1,000 g for 10 min at 4 °C and the supernatant was transferred to 15 new microcentrifuge tubes on ice. The tubes were centrifuged a second time at 1,000 g for 10 min at 4 °C and the supernatant was once again transferred to 15 new microcentrifuge tubes on ice. These tubes were then centrifuged at 16,000 g for 10 min at 4 °C. The resulting mitochondrial pellet was washed twice by re-suspension in 300 μL of ice-cold isolate buffer B (250 mM sucrose, 10 mM Tris (pH 7.5), 1 mM EDTA). Following the final wash, isolation buffer was aspirated from each tube and the pellets were flash-frozen in ethanol/dry ice and stored at −80 °C until needed.
(§1) The enzymatic activities of individual ETC complexes (I-IV) were assessed spectrophotometrically in isolated mitochondria using a Varioskan LUX Multimode plate reader (ThermoFisher Scientific). Mitochondrial pellets previously isolated were thawed on ice and resuspended in ice-cold isolation buffer (250 mM sucrose, 10 mM Tris (pH 7.5), 1 mM EDTA). The BCA assay (Walker, 1994) was used to quantify the protein concentration of mitochondria suspensions; solutions were diluted to a concentration of 0.2 mg/mL for use in all assays. For the complex I assay, mitochondria pellets were freeze-thawed on ice three times to increase enzyme accessibility. […] 20 μL mitochondria suspension was then added/mixed with a pipette to initiate the reaction. Immediately following the addition of mitochondria, absorbance was measured (complex I and II: 600 nm; complex III and IV: 550 nm) in 30 s intervals over 15 min. Enzymatic activity was determined in each reaction by plotting absorbance versus time and calculating the slope of the curve during the initial linear phase of the reaction. […] Percent activity of each complex was calculated by dividing the enzyme-specific activity of each well by the enzyme-specific activity of the corresponding solvent controls.
(§2) Chemical solutions were prepared in complex I assay buffer composed of 25 mM KPi buffer (pH 7.5), 3 mg/mL bovine serum albumin (BSA), 80 μM NADH, 60 μM decylubiquinone, 160 μM DCIP, 2 μM antimycin A and 2 mM KCN.
For preliminary screens of hit compounds, compounds were screened at 100 μM; data are the average of at least three biological replicates.

L1 wild-type C. elegans = details: for Screen "Hit" / Relative Motility: 50 μM; for Relative Motility: relative to DMSO controls, single biological replicate
[2] = biological target: B. taurus (heart) complex I (Bos taurus, UniProt P03887+P17694+P42026); test: biochemical; type: biochemical; details: heart mitochondria; read-out: B. taurus Complex I IC50
Description: Six 8–10-week-old C57Bl/6 female mice (Charles River) were freshly dissected, and their livers and hearts collected into separate 1.5 mL microcentrifuge tubes. Organs were flash-frozen in liquid nitrogen and stored at −80 °C prior to use. The heart of a freshly slaughtered adult cow was obtained from a local abattoir (Peel Sausage Inc.), chopped into ~1-inch cubes and collected into 50 mL falcon tubes. Falcon tubes were flash-frozen in a container of dry ice and stored at −80 °C prior to use. Isolation of mitochondria from all mammalian tissue was carried out following the protocol described above. However, due to size, the initial homogenization of tissue was performed by 15 strokes in a dounce homogenizer (mouse heart) or with several 5 s pulses in small Nutribullet blender (cow heart). All mouse protocols for mouse care and dissection were reviewed and approved by the University of Toronto Animal Care Committee, in accordance with the Canadian Council on Animal Care.
as §1, §2
For preliminary screens of hit compounds, compounds were screened at 100 μM; data are the average of at least three biological replicates. The complex I and II activity assays were used for additional dose-response experiments. […] For dose responses of benzimidazole analogs, data represent the average of two biological replicates. For all other dose-responses, data represent the average of at least three biological replicates.

[3] = read-out: percent (%) in vitro complex I activity relative to solvent control
[4] = active (hit) or inactive (non) at 50 μM in C. elegans assay of RQ-dependent metabolism
[5] = KCN survival assay, hit = relative motility below 0.25
[6] = worm motility 3 hours after the removal of KCN (endpoint)
[7] = hit = relative motility below 0.25 3 hours after the removal of KCN
[8] = hit = relative motility below 0.25 3 hours after removal of KCN
[9] = worm motility 3 hours after removal of KCN
[10] = active or inactive at 50 μM in C. elegans assay of RQ-dependent metabolism

Sequence of C. elegans (N2) complex I (NADH:ubiquinone oxidoreductase) (Q94360 17-199): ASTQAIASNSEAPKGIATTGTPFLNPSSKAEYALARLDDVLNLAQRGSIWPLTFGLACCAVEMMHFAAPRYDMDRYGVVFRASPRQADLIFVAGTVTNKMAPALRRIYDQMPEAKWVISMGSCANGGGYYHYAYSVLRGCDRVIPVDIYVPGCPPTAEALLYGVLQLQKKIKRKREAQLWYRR
Sequence of C. elegans (N2) complex I (NADH:ubiquinone oxidoreductase) (P24887 whole entry): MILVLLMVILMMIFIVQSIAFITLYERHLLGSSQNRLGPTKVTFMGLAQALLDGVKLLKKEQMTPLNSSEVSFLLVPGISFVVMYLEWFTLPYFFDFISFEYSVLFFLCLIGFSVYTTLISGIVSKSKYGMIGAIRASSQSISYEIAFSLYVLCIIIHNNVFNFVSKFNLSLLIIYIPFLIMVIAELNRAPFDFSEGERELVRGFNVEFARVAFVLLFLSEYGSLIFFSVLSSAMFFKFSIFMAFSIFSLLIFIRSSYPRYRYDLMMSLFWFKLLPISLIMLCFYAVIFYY
Sequence of C. elegans (N2) complex I (NADH:ubiquinone oxidoreductase) (Q93873 31-482): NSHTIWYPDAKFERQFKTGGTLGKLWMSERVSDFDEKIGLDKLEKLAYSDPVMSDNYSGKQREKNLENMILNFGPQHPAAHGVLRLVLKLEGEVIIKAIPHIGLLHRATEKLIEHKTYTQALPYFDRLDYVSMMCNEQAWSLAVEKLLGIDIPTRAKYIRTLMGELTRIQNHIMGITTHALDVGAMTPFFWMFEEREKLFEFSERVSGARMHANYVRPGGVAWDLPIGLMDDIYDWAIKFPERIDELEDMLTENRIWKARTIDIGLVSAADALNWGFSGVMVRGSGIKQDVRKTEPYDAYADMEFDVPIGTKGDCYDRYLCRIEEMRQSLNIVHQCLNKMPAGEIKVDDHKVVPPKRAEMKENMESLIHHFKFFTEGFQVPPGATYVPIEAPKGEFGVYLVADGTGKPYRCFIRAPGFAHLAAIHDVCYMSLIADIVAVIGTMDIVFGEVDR
Sequence of B. taurus (heart) complex I (P03887 whole entry): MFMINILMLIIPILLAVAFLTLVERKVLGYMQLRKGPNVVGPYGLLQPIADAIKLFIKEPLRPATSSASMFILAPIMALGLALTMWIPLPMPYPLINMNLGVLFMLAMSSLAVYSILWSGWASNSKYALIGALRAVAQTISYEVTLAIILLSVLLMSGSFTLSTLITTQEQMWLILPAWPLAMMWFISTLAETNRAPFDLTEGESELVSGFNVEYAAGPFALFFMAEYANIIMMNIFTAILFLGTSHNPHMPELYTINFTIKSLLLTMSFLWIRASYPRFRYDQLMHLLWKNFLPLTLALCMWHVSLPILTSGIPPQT
Sequence of B. taurus (heart) complex I (P17694 34-463): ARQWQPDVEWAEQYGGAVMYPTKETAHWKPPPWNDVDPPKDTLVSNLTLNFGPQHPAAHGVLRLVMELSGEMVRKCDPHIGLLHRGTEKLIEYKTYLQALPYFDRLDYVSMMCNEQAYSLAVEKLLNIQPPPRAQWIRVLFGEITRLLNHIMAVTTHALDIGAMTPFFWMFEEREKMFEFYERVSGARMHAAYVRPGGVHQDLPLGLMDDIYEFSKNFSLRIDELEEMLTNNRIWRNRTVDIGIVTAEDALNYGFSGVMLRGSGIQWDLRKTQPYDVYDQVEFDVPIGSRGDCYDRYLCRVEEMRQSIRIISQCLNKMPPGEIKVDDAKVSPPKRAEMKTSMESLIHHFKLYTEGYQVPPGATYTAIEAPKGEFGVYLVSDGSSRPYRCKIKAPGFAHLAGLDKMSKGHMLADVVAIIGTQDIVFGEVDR
Sequence of B. taurus (heart) complex I (P42026 38-216): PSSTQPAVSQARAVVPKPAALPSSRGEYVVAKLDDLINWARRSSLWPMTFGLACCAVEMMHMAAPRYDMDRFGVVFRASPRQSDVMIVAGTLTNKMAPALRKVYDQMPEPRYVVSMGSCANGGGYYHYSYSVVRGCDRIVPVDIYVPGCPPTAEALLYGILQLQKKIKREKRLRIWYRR

CCCSc1ccc2nc(NC(=O)OC)[nH]c2c1 [Albendazole]
percent (%) in vitro complex I activity relative to solvent control ([1]; 0.125 µM): 118.853% and 109.086% and 106.962%
percent (%) in vitro complex I activity relative to solvent control ([1]; 0.313 µM): 114.037% and 108.086% and 98.922%
percent (%) in vitro complex I activity relative to solvent control ([1]; 0.625 µM): 95.184% and 91.388% and 110.521%
percent (%) in vitro complex I activity relative to solvent control ([1]; 1.5 µM): 96.241% and 104.509% and 111.883%
percent (%) in vitro complex I activity relative to solvent control ([1]; 3 µM): 99.535% and 109.848% and 112.347%
percent (%) in vitro complex I activity relative to solvent control ([1]; 15 µM): 97.910% and 114.555% and 112.953%
percent (%) in vitro complex I activity relative to solvent control ([1]; 37.5 µM): 89.237% and 107.533% and 106.445%
percent (%) in vitro complex I activity relative to solvent control ([1]; 75 µM): 100.906% and 79.462% and 105.930% and 106.268%
remaining activity at 0.125 µM [1, 3]: 103%
remaining activity at 0.313 µM [1, 3]: 104%
remaining activity at 0.625 µM [1, 3]: 102%
remaining activity at 1.5 µM [1, 3]: 109%
remaining activity at 3 µM [1, 3]: 106%
remaining activity at 15 µM [1, 3]: 106%
remaining activity at 37.5 µM [1, 3]: 105%
remaining activity at […] [1, 3]: 108%

FC(OC(F)(F)F)c1nc2ccc(Cl)cc2[nH]1 (stereo not shown) [Compound 5119407]
Hit (L1 wild-type C. elegans; [4]): non

Cc1nc2cc(Cl)ccc2n1-c1ccccc1 [Compound 5119819]
Screen "Hit" (L1 wild-type C. elegans; [5]): Y (hits were identified as compounds that reduced relative motility below 0.25 (75% reduction))
Relative Motility (L1 wild-type C. elegans; [6]): 0.230

CCn1c(C)nc2cc(-c3ccccc3)ccc21 [Compound 5160815]
Screen "Hit" (L1 wild-type C. elegans; [7]): Y (hits were identified as compounds that reduced relative motility below 0.25 (75% reduction))
Relative Motility (L1 wild-type C. elegans; [6]): 0.085

Cc1ccc2[nH]c(-c3ccccc3N)nc2c1 [Compound 5534607]
Hit (L1 wild-type C. elegans; [4]): non

CC(C)(C)c1ccc(Cn2c(N)nc3ccccc32)cc1 [Compound 5564334]
Screen "Hit" (L1 wild-type C. elegans; [5]): Y (hits were identified as compounds that reduced relative motility below 0.25 (75% reduction))
Relative Motility (L1 wild-type C. elegans; [6]): 0.130

COc1ccc(CSc2nc3ccccc3[nH]2)cc1 [Compound 5568705]
Screen "Hit" (L1 wild-type C. elegans; [8]): Y (hits were identified as compounds that reduced relative motility below 0.25 (75% reduction))
Relative Motility (L1 wild-type C. elegans; [9]): 0.100

Fc1cccc(F)c1CSc1nc2ccccc2[nH]1 [Compound 5616951]
Screen "Hit" (L1 wild-type C. elegans; [8]): Y (hits were identified as compounds that reduced relative motility below 0.25 (75% reduction))
Relative Motility (L1 wild-type C. elegans; [9]): 0.130

COc1ccc2c(c1)nc(SCc1ccccc1)n2C [Compound 5649512]
Screen "Hit" (L1 wild-type C. elegans; [8]): Y (hits were identified as compounds that reduced relative motility below 0.25 (75% reduction))
Relative Motility (L1 wild-type C. elegans; [9]): 0.190

Cc1ccccc1Cn1cnc2ccccc21 [Compound 5656207]
Hit (L1 wild-type C. elegans; [10]): non

Cn1c(/C=C/c2ccc(Cl)cc2)nc2ccccc21 [Compound 5663561]
Screen "Hit" (L1 wild-type C. elegans; [5]): Y (hits were identified as compounds that reduced relative motility below 0.25 (75% reduction))
Relative Motility (L1 wild-type C. elegans; [6]): 0.220

CCN(CC)CCSc1nc2ccccc2n1Cc1ccccc1 [Compound 5685018]
Screen "Hit" (L1 wild-type C. elegans; [5]): Y (hits were identified as compounds that reduced relative motility below 0.25 (75% reduction))
Relative Motility (L1 wild-type C. elegans; [6]): 0.220

Nc1ccc(Oc2ccc(-c3nc4ccccc4[nH]3)cc2)cc1 [Compound 5747231]
Screen "Hit" (L1 wild-type C. elegans; [8]): Y (hits were identified as compounds that reduced relative motility below 0.25 (75% reduction))
Relative Motility (L1 wild-type C. elegans; [9]): 0.130

CC(C)CCSc1nc2ccccc2[nH]1 [Compound 5867913]
Screen "Hit" (L1 wild-type C. elegans; [7]): Y (hits were identified as compounds that reduced relative motility below 0.25 (75% reduction))
Relative Motility (L1 wild-type C. elegans; [6]): 0.150

COC(=O)c1ccc(OCC(O)Cn2c(C)nc3ccccc32)cc1 (stereo not shown) [Compound 5929389]
Hit (L1 wild-type C. elegans; [10]): non

CCn1c(/C=C/c2ccccc2)nc2ccccc21 [Compound 5958035]
Screen "Hit" (L1 wild-type C. elegans; [5]): Y (hits were identified as compounds that reduced relative motility below 0.25 (75% reduction))
Relative Motility (L1 wild-type C. elegans; [6]): 0.160

CCCc1nc2ccccc2n1Cc1ccc(C)cc1 [Compound 6607958]
Screen "Hit" (L1 wild-type C. elegans; [5]): Y (hits were identified as compounds that reduced relative motility below 0.25 (75% reduction))
Relative Motility (L1 wild-type C. elegans; [6]): 0.120

N#Cc1ccc(CSc2nc3ccc(Br)cc3[nH]2)cc1 [Compound 6726033]
Screen "Hit" (L1 wild-type C. elegans; [8]): Y (hits were identified as compounds that reduced relative motility below 0.25 (75% reduction))
Relative Motility (L1 wild-type C. elegans; [9]): 0.140

C=CCn1c(/C=C/c2ccccc2OC)nc2ccccc21 [Compound 7121977]
Screen "Hit" (L1 wild-type C. elegans; [5]): Y (hits were identified as compounds that reduced relative motility below 0.25 (75% reduction))
Relative Motility (L1 wild-type C. elegans; [6]): 0.140

CCCOc1ccc(Cn2c(CO)nc3ccccc32)cc1 [Compound 7356999]
Hit (L1 wild-type C. elegans; [10]): non

C=CCn1c(NCc2ccccc2OC)nc2ccccc21 [Compound 7419109]
Screen "Hit" (L1 wild-type C. elegans; [8]): Y (hits were identified as compounds that reduced relative motility below 0.25 (75% reduction))
Relative Motility (L1 wild-type C. elegans; [9]): 0.078

CCn1c(NCc2cccc(Br)c2)nc2ccccc21 [Compound 7746308]
Screen "Hit" (L1 wild-type C. elegans; [8]): Y (hits were identified as compounds that reduced relative motility below 0.25 (75% reduction))
Relative Motility (L1 wild-type C. elegans; [9]): 0.200

Cc1ccc(C(C)C)cc1OCC(O)Cn1c(C)nc2ccccc21 (stereo not shown) [Compound 7748492]
Screen "Hit" (L1 wild-type C. elegans; [8]): Y (hits were identified as compounds that reduced relative motility below 0.25 (75% reduction))
Relative Motility (L1 wild-type C. elegans; [9]): 0.220

CCOc1ccc(CNc2nc3ccccc3n2CC)cc1 [Compound 7758171]
Screen "Hit" (L1 wild-type C. elegans; [8]): Y (hits were identified as compounds that reduced relative motility below 0.25 (75% reduction))
Relative Motility (L1 wild-type C. elegans; [9]): 0.180

Cn1c(NCc2cccc(Br)c2)nc2ccccc21 [Compound 7766492]
Screen "Hit" (L1 wild-type C. elegans; [8]): Y (hits were identified as compounds that reduced relative motility below 0.25 (75% reduction))
Relative Motility (L1 wild-type C. elegans; [9]): 0.130

Cc1nn(C)c(Oc2ccccc2)c1C=NOCc1ccc(C(=O)OC(C)(C)C)cc1 [Fenpyroximate, reference compound]
pIC50 ([1]; wild-type (N2) mitochondria, read-out: C. elegans Complex I IC50): 7.68
pIC50 [2]: 7.32

— PMC11079024, “Identification of a family of species-selective complex I inhibitors as potential anthelmintics” (Nature Communications, 2024)
